Laboratory results as given in doi:10.1101/2025.11.04.686469, “Discovery of Host-Directed Small Molecules with Broad Anti-Leishmanial Efficacy” (bioRxiv, 2025).

How the values were obtained:
[1] = system: intracellular L. donovani amastigotes; test: Luminescent-based evaluation of intracellular anti-leishmanial activity in THP-1 macrophages; format: cell-based, Leishmania donovani; details: intracellular Leishmania donovani in THP1 macrophages, luminescence assay (Supplemental Table 2); read-out: Lum IC50
Experimental: Luminescent strains, L. donovani LV82 expressing firefly luciferase (a kind gift from Dr. Abhay Satoskar, Ohio State University) and L. mexicana (NR-51210, ATCC) expressing renilla luciferase were used to evaluate the effect of the compounds in intracellular and extracellular conditions. Wild-type L. donovani LV82 (ATCC) were used for Giemsa staining based experiments. All parasites were cultured at 25°C and 5% CO2 in M199 media (Corning) supplemented with 10% FBS, 1% penicillin/streptomycin, and hemin (0.01 mg/mL), and used in experiments up to passage 15.
THP-1 cells were seeded in a 96 well plate (25,000 cells/well) overnight then differentiated with 150 nM phorbol 12-myristate 13-acetate (PMA) over 72 hours (Supplemental Figure 1). […] Briefly, promastigotes of a known cell density were resuspended in RPMI media (with 10% FBS, 1% P/S and 0.05 mM β-mercaptoethanol) and incubated with adhered THP-1 cells over 18 hours. After infection, cells were washed three times with fresh media to remove extracellular promastigotes.
Infected macrophages were then treated with compounds solubilized in DMSO ranging from 0.1-10 μM in concentrations. After 72 hours of treatment, the viability of the amastigotes within macrophages was determined using Promega firefly luminescence assay (Cat E1500) or Pierce Renilla luciferase assay (Cat 16166) for L. donovani and L. mexicana strains, respectively. Briefly, media was removed, and cells were lysed with the assay lysis buffer. The luciferase substrate was then incubated with the lysed cells for 10 min at room temperature and luminescence of live Leishmania was measured in a white opaque 96 well plate using a Biotek plate reader.

THP-1 macrophages = test: Effect of compounds on host cell viability (MTT); format: cell-based; details: read-out: 24h LC50; THP1 macrophages, 24-hour incubation, MTT assay (Supplemental Table 2)
Experimental: The cells were cultured at 37C, 5% CO2 in RPMI medium (ATCC) supplemented with 10% FBS, 1% Penicillin/Streptomycin and 0.05 mM of β-mercaptoethanol. Cells were used in experiments up to passage 10.
Effect of the compounds on THP-1 cell viability measured using thiazolyl blue tetrazolium bromide which measures cell metabolic activity (MTT). THP-1 cells were seeded in a 96 well plate (25,000 cells/well) overnight then differentiated with 150 nM phorbol 12-myristate 13-acetate (PMA) over 72 hours. Macrophages were then treated with compounds resuspended in RPMI media (1- 50 μM) for 24 hours. Media was replaced with thiazolyl blue tetrazolium bromide solubilized in RPMI media (0.5 mg/mL) and incubated at 37°C for 2 hours. The reduced formazan crystals were solubilized with isopropyl alcohol and the absorbance of the resulting solution was measured at 560 nm with a background subtraction at 670 nm. […] This process was repeated with a 72-hr incubation and extended concentration range (1 - 300 μM) for select compounds.

SMILES	IC50 [1]	CC50 (THP-1 macrophages)
NC1CCN(C(=O)c2ccc(-n3cc(C(F)(F)F)nc3-c3ccc(-c4ccc(C(F)(F)F)cc4)cc3)c(F)c2)C1 (stereo not drawn) [Compound 199]	1.3 µM	9.4 µM
NCC(=O)N1CC(Nc2ccc(-n3nc(C(F)(F)F)cc3-c3ccc(-c4ccc(C(F)(F)F)cc4)cc3)cc2)C1 [Compound 118]	2.6 µM	6.2 µM
CC(C)C#Cc1ccc(-c2cc(C(F)(F)F)nn2-c2ccc(N3CCC(NCc4cccc(F)c4)C3)cc2)cc1 (stereo not drawn) [Compound 100]	> 10 µM	> 50 µM
CN(C)c1ccc(-c2cc(C(F)(F)F)nn2-c2ccc(N3CCC(NC(=O)OC(C)(C)C)C3)cc2)cc1 (stereo not drawn) [Compound 217]	> 10 µM	> 50 µM
FC(F)(F)c1cn(-c2ccc(OC3CCNC3)cc2)c(-c2ccc(-c3ccccc3)cc2)n1 (stereo not drawn) [Compound 328]	2.6 µM	11.1 µM
N#Cc1ccc(CN2CCC(Nc3ccc(-n4nc(C(F)(F)F)cc4C4CCCCC4)cc3)CC2)cc1 [Compound 323]	8.9 µM	28.3 µM
CC(C)(C)OC(=O)NC1CCN(c2ccc(-n3nc(C(F)(F)F)cc3-c3ccc(-c4ccc(C(F)(F)F)cc4)cc3)cc2)C1 (stereo not drawn) [Compound 140]	> 10 µM	> 50 µM
CC(=O)NCCOCCN1CCC(Oc2ccc(-n3nc(C(F)(F)F)cc3C3CCCCC3)cc2)CC1 [Compound 427]	6.1 µM	29.5 µM
CC(C)(C)OC(=O)NC(Cc1ccccc1)C(=O)Nc1ccc(-n2cc(C(F)(F)F)nc2-c2ccc(-c3ccc(C(F)(F)F)cc3)cc2)cc1 (stereo not drawn) [Compound 78]	> 10 µM	> 50 µM
O=[N+]([O-])c1ccc(-n2cnc3cc(Br)ccc32)cc1 [Compound 139]	> 10 µM	> 50 µM
NCC(=O)NC1CCN(c2ccc(-n3nc(C(F)(F)F)cc3-c3ccc(-c4ccc(C(F)(F)F)cc4)cc3)cc2)C1 (stereo not drawn) [Compound 119]	> 10 µM	37.2 µM
FC(F)(F)c1ccc(-c2ccc3nc[nH]c3c2)cc1 [Compound 135]	> 10 µM	> 50 µM
FC(F)(F)c1ccc(-c2ccc(-c3cc(C(F)(F)F)nn3-c3ccc(N4CCC(NCc5ccc(Cl)c(C(F)(F)F)c5)CC4)cc3)cc2)cc1 [Compound 120]	> 10 µM	> 50 µM
FC(F)(F)c1cc(-c2ccc(-c3ccc(S(F)(F)(F)(F)F)cc3)cc2)n(-c2ccc(Br)cc2)n1 [Compound 105]	> 10 µM	> 50 µM
CC(=O)NCCNC1CCN(c2ccc(-n3nc(C(F)(F)F)cc3C3CCCCC3)cc2)CC1 [Compound 419]	2.7 µM	21.6 µM
Cc1ccc(-n2nc(C(F)(F)F)cc2-c2ccc(-c3ccc(C(F)(F)F)cc3)cc2)c(C)c1 [Compound 185]	> 10 µM	> 50 µM
CC(C)(C)c1nc(C(F)(F)F)cn1-c1ccc(NC2CCNC2)cc1 (stereo not drawn) [Compound 330]	6.2 µM	> 50 µM
Nc1ccc(-n2cc(C(F)(F)F)nc2-c2ccc(-c3ccc(C(F)(F)F)cc3)cc2)cc1 [Compound 156]	5.8 µM	20.8 µM
O=C(O)c1ccc(-n2cc(C(F)(F)F)nc2-c2ccc(-c3ccc(C(F)(F)F)cc3)cc2)c(F)c1 [Compound 176]	> 10 µM	> 50 µM
O=C(NCc1cccc(F)c1)c1ccc(-n2cc(C(F)(F)F)nc2-c2ccc(-c3ccc(C(F)(F)F)cc3)cc2)c(F)c1 [Compound 181]	> 10 µM	28.7 µM
N#Cc1ccc(-n2cc(C(F)(F)F)nc2-c2ccc(-c3ccc(C(F)(F)F)cc3)cc2)cc1 [Compound 177]	> 10 µM	> 50 µM
FC(F)(F)c1ccc(-c2ccc(-c3cc(C(F)(F)F)nn3-c3ccc(N4CC(NC5CCCC5)C4)cc3)cc2)cc1 [Compound 55]	8.5 µM	29.7 µM
Nc1ccc(-n2cc(C(F)(F)F)nc2-c2ccc(Br)cc2)cc1 [Compound 193]	> 10 µM	> 50 µM
NCC(=O)Nc1ccc(-n2cc(C(F)(F)F)nc2-c2ccc(Br)cc2)cc1 [Compound 195]	> 10 µM	38.6 µM
CC(C)(C)OC(=O)NC1CCN(c2ccc(-n3nc(C(F)(F)F)cc3C(C)(C)C)cc2)C1 (stereo not drawn) [Compound 202]	8.5 µM	> 50 µM
O=[N+]([O-])c1ccc(-n2cnc3ccc(Br)cc32)cc1 [Compound 138]	> 10 µM	> 50 µM

SMILES	IC50 [1]	CC50 (THP-1 macrophages)
FC(F)(F)c1ccc(-c2cnnn2-c2ccc(Br)cc2)cc1 [Compound 131]	> 10 µM	37.2 µM
Oc1ccc(CN2CCC(Nc3ccc(-n4nc(C(F)(F)F)cc4C4CCCCC4)cc3)C2)cc1 (stereo not drawn) [Compound 368]	1.6 µM	12.1 µM
FC(F)(F)c1cc(C2CCCCC2)nn1-c1ccc(Br)cc1 [Compound 216]	> 10 µM	> 50 µM
C#CCCCC(=O)NC1CCN(c2ccc(-n3nc(C(F)(F)F)cc3-c3ccc(-c4ccc(C(F)(F)F)cc4)cc3)cc2)CC1 [Compound 92]	> 10 µM	14.7 µM
CCCCCCCCNc1ccc(-n2nc(C(F)(F)F)cc2-c2ccc(-c3ccc(C(F)(F)F)cc3)cc2)cc1 [Compound 64]	> 10 µM	> 50 µM
CC(C)(C)c1cc(C(F)(F)F)nn1-c1ccc(Br)cc1 [Compound 201]	> 10 µM	> 50 µM
FC(F)(F)c1cc(-c2ccccc2C(F)(F)F)n(-c2ccc(Br)cc2)n1 [Compound 255]	> 10 µM	> 50 µM
FC(F)(F)Oc1ccc(-n2nc(C(F)(F)F)cc2-c2ccc(-c3ccc(C(F)(F)F)cc3)cc2)cc1 [Compound 186]	> 10 µM	> 50 µM
NC1CCN(c2ccc(-n3nc(C(F)(F)F)cc3-c3ccncc3)cc2)C1 (stereo not drawn) [Compound 168]	10 µM	> 50 µM
FC(F)(F)c1cc(-c2cccnc2)n(-c2ccc(NC3CCNC3)cc2)n1 (stereo not drawn) [Compound 250]	> 10 µM	> 50 µM
NC1CCN(c2ccc(-n3nc(C4CCCCC4)cc3C(F)(F)F)cc2)C1 (stereo not drawn) [Compound 232]	2.6 µM	14.4 µM
FC(F)(F)c1ccc(-c2ccc(-c3cc(C(F)(F)F)nn3-c3ccc(OC4CCNC4)cc3)cc2)cc1 (stereo not drawn) [Compound 144]	> 10 µM	5.4 µM
CC(C)(C)OC(=O)NCC(=O)Nc1ccc(-n2cc(C(F)(F)F)nc2-c2ccc(C(C)(C)C)cc2)cc1 [Compound 151]	> 10 µM	31.8 µM
NC1CCN(c2ccc(-n3nc(C(F)(F)F)cc3-c3ccc(F)cc3)cc2)C1 (stereo not drawn) [Compound 248]	2.6 µM	14.4 µM
FC(F)(F)c1cn(-c2ccc(Br)cc2)c(-c2ccc(Oc3ccccc3)cc2)n1 [Compound 219]	> 10 µM	> 50 µM
Cc1ccc(-c2cc(C(F)(F)F)nn2-c2ccc(Br)cc2)cc1 [Compound 196]	> 10 µM	> 50 µM
O=S(=O)(c1ccc(-n2cc(C(F)(F)F)nc2-c2ccc(-c3ccc(C(F)(F)F)cc3)cc2)cc1)C(F)(F)F [Compound 244]	> 10 µM	> 50 µM
O=C(C1CCCCC1)N1CC(Nc2ccc(-n3nc(C(F)(F)F)cc3-c3ccc(-c4ccc(C(F)(F)F)cc4)cc3)cc2)C1 [Compound 71]	> 10 µM	8.4 µM
FC(F)(F)c1ccc(-c2ccc(-c3cc(C(F)(F)F)nn3-c3ccc(N4CCNCC4)cc3)cc2)cc1 [Compound 208]	5.7 µM	31 µM
FC(F)(F)c1cc(C2CCCCC2)n(-c2ccc(NC3CCN(Cc4ccccc4)CC3)cc2)n1 [Compound 381]	6.2 µM	12.4 µM
COc1ccc(C(=O)N2CCC(Nc3ccc(-n4nc(C(F)(F)F)cc4-c4ccc(-c5ccc(C(F)(F)F)cc5)cc4)cc3)C2)cc1OC (stereo not drawn) [Compound 70]	> 10 µM	> 50 µM
NCCCCCN1CCC(Oc2ccc(-n3nc(C(F)(F)F)cc3C3CCCCC3)cc2)CC1 [Compound 422]	2.5 µM	6.1 µM
CS(=O)(=O)c1ccc(-n2nc(C(F)(F)F)cc2-c2ccc(-c3ccccc3)cc2)cc1 [Compound 174]	> 10 µM	> 50 µM
N#Cc1ccc(CN2CC(Nc3ccc(-n4nc(C(F)(F)F)cc4C4CCCCC4)cc3)C2)cc1 [Compound 397]	8.1 µM	27.6 µM
FC(F)(F)c1ccc(-c2ccc(-c3cc(C(F)(F)F)nn3-c3cccc(Br)c3)cc2)cc1 [Compound 190]	> 10 µM	> 50 µM
